# Assay results published in US11377442B2, “Small molecule agonists and antagonists of NR2F6 activity” (ZANDER THERAPEUTICS, INC., priority 2016, dated 2022).
# How the values were obtained:
# [1] = tested on: Human PBMC; test: Cytokines release by hPBMC (PMA+ionomycin activated); type: cell-based
# Description: FIGS. 18A and 18B show charts of cytokines release by hPBMC and cytotox for Compound 18. For cytokines release and cytotox on hPBMCs compound was tested at 1.25, 2.5, 5, 10, 25 and 50 uM in duplicates. For cytotox on HEK293, HEK293 pGL4 and HEK293 NR2F6 (full length) compound was tested from 50 uM with dilution step 3.16 in duplicates. Human PBMC were activated by 10 ng/mL PMA+500 ng/mL ionomycin. Data were normalized to controls with (100%) w/o compounds.
# FIGS. 16A and 16B show results of cytokins release by hPBMC and cytotox for Compound C11. For cytokines release and cytotox on hPBMCs, the Compound was tested at 1.25, 2.5, 5, 10, 25 and 50 uM in duplicates. For cytotox on HEK293, HEK293 pGL4 and HEK293 NR2F6 (full length) cmpd was tested from 50 uM with dilution step 3.16 in duplicates.
# The human PBMC were activated by 10 ng/mL PMA+500 ng/mL ionomycin. Data were normalized to controls with (100%) w/o compounds.
# For cytokines release and cytotox on hPBMCs each compound was tested at 1.25, 2.5, 5, 10, 25 and 50 uM in duplicates. Human PBMC were activated by 10 ng/mL PMA+500 ng/mL ionomycin. Data were normalized to controls with (100%) w/o cmpds.
# FIGS. 61A-61E show further results of cytokine release by hPBMC for Compound D136. Each compound was tested at 1.25, 2.5, 5, 10, 25 and 50 uM in duplicates.
# Human PBMC were activated by 10 ng/mL PMA+500 ng/mL ionomycin. Data were normalized to controls with (100%) w/o cmpds.
# [2] = Stability in rat plasma; type: in vitro ADME
# [3] = Microsomal stability in rat liver microsomes; type: in vitro ADME
# [4] = mouse, in vivo
# [5] = target: hCyt P450 (Homo sapiens, UniProt P11712); test: CYP inhibition; type: in vitro ADME; details: CYP 2C9-Tolbutamide
# hCyt P450 (Homo sapiens, UniProt P11712), sequence (P11712 whole entry): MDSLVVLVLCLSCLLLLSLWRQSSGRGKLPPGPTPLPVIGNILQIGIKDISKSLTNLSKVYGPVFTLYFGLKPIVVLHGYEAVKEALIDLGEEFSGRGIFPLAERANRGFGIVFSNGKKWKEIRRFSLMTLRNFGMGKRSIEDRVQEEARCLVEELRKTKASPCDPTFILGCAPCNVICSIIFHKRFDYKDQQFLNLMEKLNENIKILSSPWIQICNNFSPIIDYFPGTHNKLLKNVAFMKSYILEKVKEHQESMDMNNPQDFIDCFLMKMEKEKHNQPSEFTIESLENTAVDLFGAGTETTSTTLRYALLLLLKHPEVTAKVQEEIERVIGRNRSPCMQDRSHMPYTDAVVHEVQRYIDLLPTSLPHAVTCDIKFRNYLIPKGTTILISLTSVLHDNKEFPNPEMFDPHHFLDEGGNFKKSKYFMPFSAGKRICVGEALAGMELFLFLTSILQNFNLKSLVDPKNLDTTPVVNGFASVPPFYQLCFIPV
# [6] = target: T1, hCyt P450 (Homo sapiens, UniProt P10632); test: CYP inhibition; type: in vitro ADME; details: CYP 2C8-Amodiaquine
# T1 sequence (P10632 1-490): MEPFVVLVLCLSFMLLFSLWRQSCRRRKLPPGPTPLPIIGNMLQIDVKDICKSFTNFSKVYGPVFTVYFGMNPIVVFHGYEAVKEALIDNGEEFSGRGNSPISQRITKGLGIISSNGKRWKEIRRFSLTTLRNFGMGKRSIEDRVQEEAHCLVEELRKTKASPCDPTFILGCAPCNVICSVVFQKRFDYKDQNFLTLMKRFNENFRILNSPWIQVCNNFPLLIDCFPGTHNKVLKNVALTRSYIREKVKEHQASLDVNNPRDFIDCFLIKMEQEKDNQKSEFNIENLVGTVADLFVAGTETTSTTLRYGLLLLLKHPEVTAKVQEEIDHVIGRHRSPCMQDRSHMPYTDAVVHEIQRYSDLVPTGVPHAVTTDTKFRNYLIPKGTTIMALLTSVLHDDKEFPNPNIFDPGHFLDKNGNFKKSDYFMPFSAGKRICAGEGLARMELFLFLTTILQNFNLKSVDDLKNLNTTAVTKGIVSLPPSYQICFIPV
# [7] = target: hCyt P450 (Homo sapiens, UniProt P10635); test: CYP inhibition; type: in vitro ADME; details: CYP 2D6-Dextromethorphan
# hCyt P450 (Homo sapiens, UniProt P10635), sequence (P10635 whole entry): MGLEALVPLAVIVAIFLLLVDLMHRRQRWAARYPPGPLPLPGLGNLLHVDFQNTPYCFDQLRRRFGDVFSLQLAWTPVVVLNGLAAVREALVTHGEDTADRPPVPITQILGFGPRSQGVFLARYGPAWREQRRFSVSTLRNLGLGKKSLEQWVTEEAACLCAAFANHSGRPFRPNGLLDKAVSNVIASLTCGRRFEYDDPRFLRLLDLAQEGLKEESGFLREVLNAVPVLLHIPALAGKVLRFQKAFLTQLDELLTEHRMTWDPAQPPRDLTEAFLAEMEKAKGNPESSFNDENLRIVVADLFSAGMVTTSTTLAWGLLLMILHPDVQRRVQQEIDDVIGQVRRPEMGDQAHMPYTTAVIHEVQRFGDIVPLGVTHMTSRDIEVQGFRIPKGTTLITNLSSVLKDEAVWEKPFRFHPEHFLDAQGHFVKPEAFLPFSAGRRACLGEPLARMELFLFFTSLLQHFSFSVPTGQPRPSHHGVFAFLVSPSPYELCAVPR
# [8] = target: hCyt P450 (Homo sapiens, UniProt P33261); test: CYP inhibition; type: in vitro ADME; details: CYP 2C19-Mephenytoin
# hCyt P450 (Homo sapiens, UniProt P33261), sequence (P33261 whole entry): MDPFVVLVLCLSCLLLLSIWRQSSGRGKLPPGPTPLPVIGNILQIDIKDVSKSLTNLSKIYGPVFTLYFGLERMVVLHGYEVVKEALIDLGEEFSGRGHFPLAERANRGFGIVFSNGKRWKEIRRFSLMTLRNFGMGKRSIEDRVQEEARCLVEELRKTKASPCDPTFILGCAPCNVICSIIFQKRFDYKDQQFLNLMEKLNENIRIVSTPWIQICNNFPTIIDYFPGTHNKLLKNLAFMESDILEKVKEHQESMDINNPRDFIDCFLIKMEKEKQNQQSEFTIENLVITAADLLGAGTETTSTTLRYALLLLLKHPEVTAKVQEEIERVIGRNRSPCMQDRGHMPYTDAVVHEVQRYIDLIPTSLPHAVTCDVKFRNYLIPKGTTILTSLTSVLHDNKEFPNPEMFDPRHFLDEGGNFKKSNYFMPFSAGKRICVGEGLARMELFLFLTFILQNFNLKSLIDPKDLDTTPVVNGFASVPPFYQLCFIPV
# [9] = target: hCyt P450 (Homo sapiens, UniProt P08684); test: CYP inhibition; type: in vitro ADME
# hCyt P450 (Homo sapiens, UniProt P08684), sequence (P08684 whole entry): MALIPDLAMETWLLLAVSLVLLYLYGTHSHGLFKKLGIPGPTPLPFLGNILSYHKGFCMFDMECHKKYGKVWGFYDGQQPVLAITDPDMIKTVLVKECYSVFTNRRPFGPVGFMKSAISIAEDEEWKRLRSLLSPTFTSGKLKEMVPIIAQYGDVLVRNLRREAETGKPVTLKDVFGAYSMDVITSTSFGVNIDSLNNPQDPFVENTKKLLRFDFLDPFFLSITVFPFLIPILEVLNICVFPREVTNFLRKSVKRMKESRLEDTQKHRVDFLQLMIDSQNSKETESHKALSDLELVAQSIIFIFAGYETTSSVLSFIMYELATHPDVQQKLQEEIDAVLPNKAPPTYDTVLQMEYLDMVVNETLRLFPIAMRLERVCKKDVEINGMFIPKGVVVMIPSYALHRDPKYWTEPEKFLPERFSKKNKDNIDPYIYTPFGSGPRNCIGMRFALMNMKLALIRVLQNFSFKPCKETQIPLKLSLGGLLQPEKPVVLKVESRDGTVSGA
# [10] = target: T2, hCyt P450 (Homo sapiens, UniProt P05177); test: CYP inhibition; type: in vitro ADME; details: CYP 1A2-Phenacetin
# T2 sequence (P05177 1-516): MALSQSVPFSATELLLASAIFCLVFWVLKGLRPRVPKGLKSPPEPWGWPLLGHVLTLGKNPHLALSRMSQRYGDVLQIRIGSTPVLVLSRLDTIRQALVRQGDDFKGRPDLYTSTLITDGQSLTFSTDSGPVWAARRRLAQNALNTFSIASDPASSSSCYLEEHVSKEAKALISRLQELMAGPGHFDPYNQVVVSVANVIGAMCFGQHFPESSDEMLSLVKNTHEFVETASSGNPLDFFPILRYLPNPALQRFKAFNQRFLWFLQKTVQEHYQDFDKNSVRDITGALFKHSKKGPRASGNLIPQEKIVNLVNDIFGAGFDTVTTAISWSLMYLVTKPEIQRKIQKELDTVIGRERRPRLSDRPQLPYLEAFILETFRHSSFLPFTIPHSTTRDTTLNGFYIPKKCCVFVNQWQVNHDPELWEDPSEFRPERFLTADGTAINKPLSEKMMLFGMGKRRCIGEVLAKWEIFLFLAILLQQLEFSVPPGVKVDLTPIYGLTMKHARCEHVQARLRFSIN
# [11] = tested on: hCyt P450; test: CYP inhibition; type: in vitro ADME, human
smiles,measurement,setting,value
COCCN[C@H]1CS(=O)(=O)C[C@@H]1S(=O)(=O)c1ccc(Cl)cc1 [Compound D136],IL1b release activation by hPBMC,[1]; at high release activation of others cytokines,No IL1b release activation
same,IL-1 inhibition,[1]; human PBMC,Selectively inhibits
same,IL-17α inhibition,[1]; human PBMC,Selectively inhibits
same,TNF-α inhibition,[1]; human PBMC,Selectively inhibits
same,stability in rat plasma,[2],Stable
same,stability in presence of rat liver microsomes,[3],Extremely stable
same,MTD and acute toxicity,[4],no toxicity was observed
same,CYP inhibition conclusion,[5],no inhi-
same,IC50,[5],> 10 µM
same,CYP inhibition conclusion,[6],no inhi-
same,IC50,[6],> 10 µM
same,CYP inhibition conclusion,[7],no inhi-
same,IC50,[7],> 10 µM
same,CYP inhibition conclusion,[8],no inhi-
same,IC50,[8],> 10 µM
same,CYP inhibition conclusion,[9]; CYP 3A4-Midazolam,no inhi-
same,IC50,[9]; CYP 3A4-Midazolam,> 10 µM
same,CYP inhibition conclusion,[9]; CYP 3A4-Testosterone,no inhi-
same,IC50,[9]; CYP 3A4-Testosterone,> 10 µM
same,CYP inhibition conclusion,[10],no inhi-
same,IC50,[10],> 10 µM
same,inhibition of 7 major isoforms of hCyt P450,[11],no inhibition
